According to ChEMBL document CHEMBL1201862, “PubChem BioAssay data set” (2004):
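Growth conditions: 96-well plates. Treatment: test compound, 48 hours, 5 concentrations. Analysis: linear interpolation between bracketing concentrations; unreached endpoints set to highest concentration. GI50: concentration for 50% inhibition of growth.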 Active and inactive are the calls of the source. No stated cut-off is given here; in the data, active = GI50 up to about 1.1 µM and inactive = higher.

Key:
Assay in all cases: NCI tumour cell line growth inhibition, 48 h
[1] = test system: 786-0
[2] = test system: A549
[3] = test system: ACHN
[4] = test system: CAKI-1
[5] = test system: CCRF-CEM
[6] = test system: COLO 205
[7] = test system: DU-145
[8] = test system: HCC 2998
[9] = test system: HCT-116
[10] = test system: HCT-15
[11] = test system: HOP-62
[12] = test system: HOP-92
[13] = test system: HT-29
[14] = test system: Hs-578T
[15] = test system: IGROV-1
[16] = test system: K562
[17] = test system: KM12
[18] = test system: LOX IMVI
[19] = test system: M14
[20] = test system: MCF7
[21] = test system: MDA-MB-231
[22] = test system: MDA-MB-435
[23] = test system: MDA-N
[24] = test system: MOLT-4
[25] = test system: Malme-3M
[26] = test system: NCI-H226
[27] = test system: NCI-H23
[28] = test system: NCI-H460
[29] = test system: NCI-H522
[30] = test system: NCI/ADR-RES
[31] = test system: OVCAR-3
[32] = test system: OVCAR-4
[33] = test system: OVCAR-5
[34] = test system: OVCAR-8
[35] = test system: PC-3
[36] = test system: RPMI-8226
[37] = test system: RXF 393
[38] = test system: SF-268
[39] = test system: SF-295
[40] = test system: SF-539
[41] = test system: SK-MEL-28
[42] = test system: SK-MEL-5
[43] = test system: SK-OV-3
[44] = test system: SN12C
[45] = test system: SNB-19
[46] = test system: SNB-75
[47] = test system: SR
[48] = test system: SW-620
[49] = test system: T47D
[50] = test system: TK-10
[51] = test system: U-251
[52] = test system: UACC-62
[53] = test system: UO-31
[54] = test system: HL-60
[55] = test system: SK-MEL-2
[56] = test system: UACC-257
[57] = test system: A498
[58] = test system: EKVX

With Clc1ncnc(Cl)c1Cl the GI50 [1] was > 100 µM (inactive), the GI50 [2] was > 100 µM (inactive) and the GI50 [3] was > 100 µM (inactive). The GI50 [4] was > 100 µM (inactive), the GI50 [5] was > 100 µM (inactive) and the GI50 [6] was > 100 µM (inactive). For the same compound, the GI50 [7] was > 100 µM (inactive), the GI50 [8] was > 100 µM (inactive) and the GI50 [9] was > 100 µM (inactive). For the same compound, the GI50 [10] was over 100 µM, the GI50 [11] was > 100 µM (inactive) and the GI50 [12] was > 100 µM (inactive). For the same compound, the GI50 [13] was > 100 µM (inactive), the GI50 [14] was > 100 µM (inactive) and the GI50 [15] was > 100 µM (inactive). The GI50 [16] was > 100 µM (inactive), the GI50 [17] was > 100 µM (inactive) and the GI50 [18] was > 100 µM (inactive). The GI50 [19] was > 100 µM (inactive), the GI50 [20] was > 100 µM (inactive) and the GI50 [21] was > 100 µM (inactive). The GI50 [22] was > 100 µM (inactive), the GI50 [23] was > 100 µM (inactive) and the GI50 [24] was > 100 µM (inactive). The GI50 [25] was > 100 µM (inactive), the GI50 [26] was > 100 µM (inactive) and the GI50 [27] was > 100 µM (inactive). The GI50 [28] was > 100 µM (inactive), the GI50 [29] was > 100 µM (inactive) and the GI50 [30] was > 100 µM (inactive). The GI50 [31] was > 100 µM (inactive), the GI50 [32] was > 100 µM (inactive) and the GI50 [33] was > 100 µM (inactive). The GI50 [34] was > 100 µM (inactive), the GI50 [35] was > 100 µM (inactive) and the GI50 [36] was 4.41 µM (inactive). The GI50 [37] was > 100 µM (inactive), the GI50 [38] was > 100 µM (inactive) and the GI50 [39] was > 100 µM (inactive). The GI50 [40] was > 100 µM (inactive), the GI50 [41] was > 100 µM (inactive) and the GI50 [42] was > 100 µM (inactive). For the same compound, the GI50 [43] was > 100 µM (inactive), the GI50 [44] was > 100 µM (inactive) and the GI50 [45] was > 100 µM (inactive). The GI50 [46] was > 100 µM (inactive), the GI50 [47] was > 100 µM (inactive) and the GI50 [48] was > 100 µM (inactive). For the same compound, the GI50 [49] was > 100 µM (inactive), the GI50 [50] was > 100 µM (inactive) and the GI50 [51] was > 100 µM (inactive). The GI50 [52] was > 100 µM (inactive) and the GI50 [53] was > 100 µM (inactive).
In the case of CCCCSCCC(N)P(=O)(O)O (stereo unspecified), the GI50 [2] is reported as > 100 µM (inactive), the GI50 [3] is reported as > 100 µM (inactive) and the GI50 [4] is reported as > 100 µM (inactive). The GI50 [5] was > 100 µM (inactive), the GI50 [6] was > 100 µM (inactive) and the GI50 [7] was > 100 µM (inactive). The GI50 [8] was > 100 µM (inactive), the GI50 [9] was > 100 µM (inactive) and the GI50 [10] was over 100 µM. The GI50 [54] was > 100 µM (inactive), the GI50 [11] was > 100 µM (inactive) and the GI50 [12] was > 100 µM (inactive). The GI50 [13] was > 100 µM (inactive), the GI50 [14] was > 100 µM (inactive) and the GI50 [15] was > 100 µM (inactive). For the same compound, the GI50 [16] was > 100 µM (inactive), the GI50 [18] was > 100 µM (inactive) and the GI50 [19] was > 100 µM (inactive). The GI50 [20] was > 100 µM (inactive), the GI50 [21] was > 100 µM (inactive) and the GI50 [22] was > 100 µM (inactive). The GI50 [23] was > 100 µM (inactive), the GI50 [24] was > 100 µM (inactive) and the GI50 [26] was > 100 µM (inactive). The GI50 [27] was > 100 µM (inactive), the GI50 [28] was > 100 µM (inactive) and the GI50 [29] was > 100 µM (inactive). The GI50 [30] was > 100 µM (inactive), the GI50 [31] was > 100 µM (inactive) and the GI50 [32] was > 100 µM (inactive). The GI50 [33] was > 100 µM (inactive), the GI50 [34] was > 100 µM (inactive) and the GI50 [35] was > 100 µM (inactive). For the same compound, the GI50 [36] was > 100 µM (inactive), the GI50 [39] was > 100 µM (inactive) and the GI50 [41] was > 100 µM (inactive). For the same compound, the GI50 [55] was > 100 µM (inactive), the GI50 [42] was > 100 µM (inactive) and the GI50 [43] was > 100 µM (inactive). For the same compound, the GI50 [44] was > 100 µM (inactive), the GI50 [45] was > 100 µM (inactive) and the GI50 [46] was > 100 µM (inactive). For the same compound, the GI50 [47] was > 100 µM (inactive), the GI50 [48] was > 100 µM (inactive) and the GI50 [49] was > 100 µM (inactive). For the same compound, the GI50 [50] was > 100 µM (inactive), the GI50 [51] was > 100 µM (inactive) and the GI50 [56] was > 100 µM (inactive). For the same compound, the GI50 [53] was > 100 µM (inactive).
CN1c2ccccc2C(=O)Nc2cnc(Cl)nc21 was tested, and the GI50 [1] was 35.8 µM (inactive), the GI50 [57] was 73.6 µM (inactive) and the GI50 [2] was > 100 µM (inactive). The GI50 [3] was > 100 µM (inactive), the GI50 [4] was > 100 µM (inactive) and the GI50 [5] was > 100 µM (inactive). The GI50 [6] was > 100 µM (inactive), the GI50 [7] was > 100 µM (inactive) and the GI50 [58] was > 100 µM (inactive). For the same compound, the GI50 [8] was > 100 µM (inactive), the GI50 [9] was > 100 µM (inactive) and the GI50 [10] was over 100 µM. The GI50 [54] was > 100 µM (inactive), the GI50 [11] was 31.1 µM (inactive) and the GI50 [12] was 35.7 µM (inactive). The GI50 [13] was > 100 µM (inactive), the GI50 [15] was > 100 µM (inactive) and the GI50 [16] was > 100 µM (inactive). The GI50 [17] was > 100 µM (inactive), the GI50 [18] was > 100 µM (inactive) and the GI50 [19] was > 100 µM (inactive). For the same compound, the GI50 [20] was > 100 µM (inactive), the GI50 [21] was 44.3 µM (inactive) and the GI50 [22] was > 100 µM (inactive). The GI50 [23] was > 100 µM (inactive), the GI50 [24] was > 100 µM (inactive) and the GI50 [25] was > 100 µM (inactive). For the same compound, the GI50 [26] was > 100 µM (inactive), the GI50 [27] was > 100 µM (inactive) and the GI50 [29] was 64.6 µM (inactive). For the same compound, the GI50 [30] was 82.6 µM (inactive), the GI50 [31] was > 100 µM (inactive) and the GI50 [32] was 93.1 µM (inactive). The GI50 [33] was > 100 µM (inactive), the GI50 [34] was 65.2 µM (inactive) and the GI50 [35] was > 100 µM (inactive). For the same compound, the GI50 [36] was > 100 µM (inactive), the GI50 [37] was > 100 µM (inactive) and the GI50 [39] was 46.3 µM (inactive). The GI50 [40] was 49.1 µM (inactive), the GI50 [41] was > 100 µM (inactive) and the GI50 [55] was > 100 µM (inactive). For the same compound, the GI50 [42] was > 100 µM (inactive), the GI50 [43] was > 100 µM (inactive) and the GI50 [44] was 66.7 µM (inactive). For the same compound, the GI50 [45] was 36.6 µM (inactive), the GI50 [46] was 39.2 µM (inactive) and the GI50 [48] was > 100 µM (inactive). For the same compound, the GI50 [49] was > 100 µM (inactive), the GI50 [50] was > 100 µM (inactive) and the GI50 [51] was 45.5 µM (inactive). For the same compound, the GI50 [56] was > 100 µM (inactive), the GI50 [52] was > 100 µM (inactive) and the GI50 [53] was > 100 µM (inactive).
